Data from patent US20220213030A1, “AMINOGUANIDINE HYDRAZONES AS RETROMER STABILIZERS USEFUL FOR TREATING NEUROLOGICAL DISEASES” (OSPEDALE SAN RAFFAELE SRL, priority 2019, published 2022).
“Also recorded” adds a separate entry of the source.

Columns and labels:
[1] = target: VPS35 (Mus musculus, UniProt Q9EQH3+Q9QZ88); assay: VPS35 levels in Neuro2a cells by Western blot (screening of amino guanidine hydrazones); type: cell-based; design: endogenous in cells; host or cells: Neuro2a; conditions: 48 hours; for Mean fold changes (VPS35 levels normalized on β-Actin, over vehicle-treated cells): 10 μM, independent cultures n=3; for VPS35 levels (in words): compounds at 10 μM
Experimental: To functionally screen the majority of synthetized amino guanidine hydrazones of the invention and determine their effects on the retromer complex, we incubated Neuro2a cells with each synthetized molecule at the concentration of 10 μM.
The test was executed in triplicate for each tested compound of the invention, cells lysates were established after 48 hours' incubation, and levels of VPS35 were normalized on the housekeeping gene β-Actin by Western blot. We observed a preliminary SAR among the compounds.
Fold changes are calculated over normalized VPS35 levels measured in vehicle-treated cells.
Neuro2a cells were seeded on 12 wells multiwell at the concentration of 100 000 cells/well. Cells were incubated with each compound, including the standard R55, at 10 μM for 48 hours. Cells were then washed in PBS 1× and lysed in a buffer containing Tris-HCl 10 mM pH8, EDTA 1 mM pH8, NaCl 100 mM, NP40 1%, with protease inhibitor cocktail (Sigma) 1×. Using a cell scraper total lysates were collected from each well, quantified with BCA (BCA protein assay, Thermofisher). Five μg were resolved on precast 10% acrylamide gel (Biorad). Proteins were transferred to a PVDF membrane (Millipore) and western blot were performed using the following antibodies: goat αVPS35 (1:1000), mouse α-βActin (1:10000). Detection of proteins was obtained by a chemiluminescence detection kit (PerkinElmer).

[2] = system: LC3; assay: pHfluorin-LC3 autophagy assay in Neuro2a clone 7B11; type: cell-based, mouse; conditions: BafilomycinA1 200 nM, Torin-1 250 nM, 48 hours
Experimental: Besides increasing the functionality of lysosomes we hypothesised that compound 2a could also enhance the autophagy system. Therefore we used a pHfluorin-LC3-based assay to monitor the autophagy process in living Neuro2a cells. We have established in our laboratory a Neuro2a stable cell clone (7B11) that expresses the Microtubule-associated protein 1A/1B-light chain 3 (LC3) coupled with the ph-sensitive GFP/phlourin.
Neuro2a-7B11 cells were incubated with increasing concentrations of compound 2a (0.1-100 μM) as well as with the control molecules Bafilomycin Al and Torin-1. After 48 hours the GFP/phluorin signal, which is ph-sensitive, was measured by flow cytometry and fold changes calculated over untreated cells.
Autophagy assay were done using a stable Neuro2a cell clone expressing the pHluorin-mKate2-tagged human LC3 plasmids, Cell clones were generated according our published methods (Mazzocchi 2016). Upon transfection, cells were selected by 400 μg/mL G418 Disulfate Salt Solution (Sigma-Aldrich, St. Louis, Mo.) and further cloned by limiting dilution. […] Neuro2a 7B11 cells were treated with Compound 2a (0.1-100 μM) for 48 hours then MFI levels of the pHfluorin were measured in living cells by flow cytometry.

[3] = system: Neuro2a cells receiving H2O2; assay: H2O2-induced cell death in Neuro2a cells; type: cell-based, mouse; conditions: compound 10 μM, H2O2 200 μM, 48 hours
Experimental: We tested the specificity of compound 2a in an assay based on H2O2-induced chromosomal breaks that lead to DNA fragmentation and cell death. In principle such DNA lesions are the cause of cell death according to a process that is not influenced by the retromer. Thus, our leads should not be able to modulate rates cell survival in Neuro2a cells receiving H2O2. We incubated Neuro2a cells with 200 μM of H2O2 along with compounds 2a, 2c, 2d and 2g (10 μM).
Cell survival experiments were run on 96-well plates using Cell Counting Kit-8 (CCK8) survival kit (96992-Sigma) according the manufacturer's recommendations. Compound 2a cytotoxicity was tested on Neuro2a cells receiving increasing amount of compound 2a (1, 10, 50, 100, 200, 500 and 1000 μM) for 48 hours.

[4] = system: G93A mice; conditions: mouse, in vivo; cited from earlier work
[5] = system: TNFα; assay: LPS-mediated TNFα release in Raw 264.7 cells (ELISA); type: cell-based, murine; conditions: 10 μM for 1 hour, then LPS 100 ng/ml, 4 hours
Excerpt: We observed that the molecular structure featuring compound 2a is reminiscent of the patented compound CNI-1493 (N,N′-bis [3,5 -bis [1(aminoiminomethyl) hydrazono]ethyl]phenyl]decanediamide tetrahydrochloride (CAS Reg. No. 164301-51-3)), (FIG. 16A). CNI-1493 inhibits macrophage activation in the animal model of Multiple Sclerosis producing a general amelioration of clinical and pathological outcomes of these mice (Martiney, Rajan et al. 1998). […] CNI-1493 suppresses the production of pro-inflammatory cytokines, belonging to the plethora of detrimental signals that accompany neurodegenerative processes in several disorders. […] We followed experimental procedures published by Bianchi and colleagues that describe the ability of CNI-1493 to blunt the production of this cytokine (Bianchi, Bloom et al. 1996). Cells were incubated with CNI-1493 (10 μM) or with compound 2a (10 μM) for 1 hour and then we added the LPS (100 ng/ml) to media. We next collected supernatants (4 hours after the LPS stimulation) form cells for the evaluation of TNFα levels.
Raw 264.7 cells (10^5/well) were treated with compound 2a, CNI-1493 or vehicle for 1 hour then we applied LPS (100 ng/ml) and supernatants were collected after 4 hours. […] Concentrations of TNFα were calculated according to a standard curve and expressed as nanograms per […]. […]

[6] = system: TNFα, IL-1(3, IL-6 and macrophage inflammatory proteins 1α and 1β); conditions: cited from earlier work

With `CC(=O)Nc1cc(C=NNC(=N)N)cc(C=NNC(=N)N)c1` [Compound 2l, 1-Acetamido-3,5-bis-aminoguanidine phenyl hydrazone] the “Mean fold changes (VPS35 levels normalized on β-Actin, over vehicle-treated cells)” value [1] was 1.660.

In the case of `CO/C1=C\C(C)=C\[C@@H](C)[C@@H](O)[C@@H](C)C/C(C)=C/C=C/[C@H](OC)[C@@H]([C@@H](C)[C@@H](O)[C@H](C)[C@@]2(O)C[C@@H](O)[C@H](C)[C@@H](C(C)C)O2)OC1=O` [Bafilomycin A1, reference compound], the “GFP/phluorin fluorescence, control molecules” value [2] is reported as “augmented fluorescence”.

For `C/C(=N\NC(=N)N)c1cccc(/C(C)=N/NC(=N)N)c1` [Compound (VIII), 1′,3′-Dimethyl-1,3-bis-aminoguanidine phenyl hydrazone, reference compound], the “Mean fold changes (VPS35 levels normalized on β-Actin, over vehicle-treated cells)” value [1] was 0.600.

For `CCC(=O)N1CCN(c2ccc(-n3c(=O)ccc4cnc5ccc(-c6cnc7ccccc7c6)cc5c43)cc2C(F)(F)F)CC1` [Torin 1, reference compound], the “GFP/phluorin fluorescence, control molecules” value [2] was “significantly dampened”.

With `N=C(N)NN=Cc1cc(C=NNC(=N)N)cc(C(=O)N2CCN(c3ccccc3)CC2)c1` [Compound 2q, 5-(N4-phenylpiperazinyl)carboxamido-3,5-bis-amino guanidine phenyl hydrazone] the “Mean fold changes (VPS35 levels normalized on β-Actin, over vehicle-treated cells)” value [1] was 1.784.

With `N=C(N)NN=Cc1ccc(O)c(C=NNC(=N)N)c1` [Compound 2d, 1-Hydroxy-2,4-bis-aminoguanidine phenyl hydrazone] the “cell survival with H2O2 with or without compound” value [3] was “did not result in any significant difference” and the “Mean fold changes (VPS35 levels normalized on β-Actin, over vehicle-treated cells)” value [1] was 2.477.

With `CCCCNC(=N)NN=Cc1cc(C=NNC(=N)NCCCC)cc(NC(=O)c2ccc(C)cc2)c1` [Compound 2w, 1-p-Tolylamido-3,5-bis-(N3-n-butylamino) guanidine phenyl hydrazone] the “Mean fold changes (VPS35 levels normalized on β-Actin, over vehicle-treated cells)” value [1] was 0.625.

In the case of `COc1ccc(C=NNC(=N)N)cc1C=NNC(=N)N` [Compound 2e, 1-Methoxy-2,4-bis-amino guanidine phenyl hydrazone], the “Mean fold changes (VPS35 levels normalized on β-Actin, over vehicle-treated cells)” value [1] is reported as 2.070.

With `N=C(N)NN=Cc1ccc(Br)c(C=NNC(=N)N)c1` [Compound 2c, 4-Bromo-1,3-bis-amino guanidine phenyl hydrazone] the “cell survival with H2O2 with or without compound” value [3] was “did not result in any significant difference” and the “Mean fold changes (VPS35 levels normalized on β-Actin, over vehicle-treated cells)” value [1] was 1.617.

With `CS(=O)(=O)Nc1cc(C=NNC(=N)N)cc(C=NNC(=N)N)c1` [Compound 2n, 1-Methylsulfonamido-3,5-bis-aminoguanidine phenyl hydrazone] the “Mean fold changes (VPS35 levels normalized on β-Actin, over vehicle-treated cells)” value [1] was 1.280.

With `N=C(N)NN=Cc1cccc(C=NNC(=N)N)c1Br` [Compound 2b, 2-Bromo-1,3-bis-aminoguanidine phenyl hydrazone] the “Mean fold changes (VPS35 levels normalized on β-Actin, over vehicle-treated cells)” value [1] was 1.300.

For `C/C(=N\N=C(N)N)c1cc(NC(=O)CCCCCCCCC(=O)Nc2cc(/C(C)=N/N=C(N)N)cc(/C(C)=N/N=C(N)N)c2)cc(/C(C)=N/N=C(N)N)c1.Cl.Cl.Cl.Cl` [CNI-1493, reference compound], the “VPS35 levels (in words)” value [1] is given as “did not increased”, the “VPS35 levels (in words)” value ([1]; listed as CNI-1494) is given as “does not modulate VPS35” and the “onset of the disease and lifespan” value [4] is given as “delayed the onset of the disease and increased the lifespan of mice”. For the same compound, the “TNFα levels in supernatants” value [5] was “significantly inhibited the expression of this cytokine; also recorded: significantly blunted TNFα expression” and the “expression of pro-inflammatory cytokines” value [6] was “inhibits the expression”.

For `Cc1ccc(C(=O)Nc2cc(C=NNC(=N)N)cc(C=NNC(=N)N)c2)cc1` [Compound 2m, 1-p-Tolylamido-3,5-bis-aminoguanidine phenyl hydrazone], the “Mean fold changes (VPS35 levels normalized on β-Actin, over vehicle-treated cells)” value [1] was 0.974.

For `Cc1cc(C=NNC(=N)N)cc(C=NNC(=N)N)c1` [Compound 2g, 5-Methyl-1,3-bis-aminoguanidine phenyl hydrazone], the “cell survival with H2O2 with or without compound” value [3] was “did not result in any significant difference” and the “Mean fold changes (VPS35 levels normalized on β-Actin, over vehicle-treated cells)” value [1] was 2.080.

With `C(=NNc1nc2ccccc2[nH]1)c1cccc(C=NNc2nc3ccccc3[nH]2)c1` [Compound 2z, 1,3-Bis-(N2N3-benzimidazolidinyl) guanidine phenyl hydrazone] the “Mean fold changes (VPS35 levels normalized on β-Actin, over vehicle-treated cells)” value [1] was 1.105.

With `COc1cc(C=NNC(=N)N)cc(C=NNC(=N)N)c1` [Compound 2i, 1-Methoxy-3,5-bis-aminoguanidine phenyl hydrazone] the “Mean fold changes (VPS35 levels normalized on β-Actin, over vehicle-treated cells)” value [1] was 1.310.

With `COC(=O)c1cc(C=NNC(=N)N)cc(C=NNC(=N)N)c1` [Compound 2p, 1-Carbomethoxy-3,5-bis-amino guanidine phenyl hydrazone] the “Mean fold changes (VPS35 levels normalized on β-Actin, over vehicle-treated cells)” value [1] was 1.582.

In the case of `Cc1ccc(S(=O)(=O)Nc2cc(C=NNC(=N)N)cc(C=NNC(=N)N)c2)cc1` [Compound 2o, 1-p-Tolylsulfonamido-3,5-bis-aminoguanidine phenyl hydrazone], the “Mean fold changes (VPS35 levels normalized on β-Actin, over vehicle-treated cells)” value [1] is reported as 1.501.

In the case of `N=C(NN=Cc1cccc(C=NNC(=N)N2CCCC2)c1)N1CCCC1` [Compound 2v, 1,3-bis-(N3-pyrrolidinyl) guanidine phenyl hydrazone], the “Mean fold changes (VPS35 levels normalized on β-Actin, over vehicle-treated cells)” value [1] is reported as 1.978.

In the case of `CCCCOc1ccc(C=NNC(=N)N)cc1C=NNC(=N)N` [Compound 2f, 1-(n-Butoxy)-2,4-bis-aminoguanidine phenyl hydrazone], the “Mean fold changes (VPS35 levels normalized on β-Actin, over vehicle-treated cells)” value [1] is reported as 1.415.

For `N=C(N)NN=Cc1cc(C=NNC(=N)N)cc(C=NNC(=N)N)c1` [Compound 2r, 1-3,5-tris-amino guanidine phenyl hydrazone], the “Mean fold changes (VPS35 levels normalized on β-Actin, over vehicle-treated cells)” value [1] was 1.154.
